Tests used:
KB tumor = assay: In vivo activity against KB tumors in mice; details: 0.5 μmol/kg once a week for two weeks
Source text: Treatment with 0.5 μmol/kg of Conjugate 5, once a week for two weeks also produced maximal anti-tumor activity with 100% cures. Change in weight is shown in FIG. 2B for test mice dosed at 0.5 μmol/kg Conjugate 5 SIW for two weeks (▴) compared to untreated control (▪).

TNBC PDX tumor = assay: In vivo activity against triple negative breast tumors (FIG. 10); parameters: species or system mice; details: Conjugate 5 0.27 μmol/kg BIW two weeks; erubulin mesylate 1.0 μmol/kg SIW two weeks
Experimental: (§1) Mice were maintained and tumor volumes were measures according to Method 3.
(§2) Primary human TNBC model ST502 (2-4 mm in diameter) or primary human TNBC model ST738 (2-4 mm in diameter) were inoculated subcutaneously at the right flank of each mouse. Mice were randomized into experimental groups of 7 mice each and test articles were injected through the lateral tail vein under sterile conditions in a volume of […] of phosphate-buffered saline (PBS).

ST502 TNBC PDX tumors = assay: In vivo activity against triple negative breast tumors (FIG. 5); parameters: species or system mice
Experimental: as §1, §2

folate receptor = biological target: T1, folate receptor (Homo sapiens, UniProt P15328); assay: Relative affinity assay ([3H]FA displacement on KB cells); type: binding
T1 construct: FR-positive KB cells were seeded in 24-well Falcon plates and allowed to form adherent monolayers; endogenous in cells; host or cells: KB cells
Experimental: FR-positive KB cells were seeded in 24-well Falcon plates and allowed to form adherent monolayers (>90% confluent) overnight in FFRPMI/HIFCS. Spent incubation medium was replaced with FFRPMI supplemented with 10% HIFCS and containing 100 nmol/L of [^3H]FA in the absence and presence of increasing concentrations of unlabeled FA or the test conjugate. Cells were incubated for 1 hour at 37° C. and then rinsed thrice with 0.5 mL PBS. Five hundred microliters of 1% SDS in PBS were added to each well; after 5 min, cell lysates were collected, transferred to individual vials containing 5 mL of scintillation cocktail, and then counted for radioactivity.
Cells exposed to only the [^3H]FA in FFRPMI (no competitor) were designated as negative controls, whereas cells exposed to the [^3H]FA plus 1 mmol/L unlabeled FA served as positive controls. Disintegrations per minute (DPM) measured in the latter samples (representing nonspecific binding of label) were subtracted from the DPM values from all samples.

Calf thymus DNA (CT-DNA) = assay: DNA crosslinking assay (ethidium bromide fluorescence); type: biochemical; details: 1.1 to 75 μM, 37° C. 2 hours
Experimental: Calf thymus DNA (CT-DNA) was combined with increasing concentrations of Conjugate 5 (1.1 to 75 μM) or Conjugate 5+/−DTT. These solutions were incubated at 37° C. for 2 hours. The solutions were then mixed with ethidium bromide and incubated for 2 hours at room temperature. Fluorescence (Ex: 535 nm, Em: 605 nm) from these samples was measured on the Fluoroskan II fluorimeter. Next, the samples were heated to 104° C. for 5 minutes, cooled on ice for 5 minutes, kept at RT for 15 minutes and fluorescence measured. % crosslinking of each sample was calculated using the fluorescence values from the positive and negative controls.

IGROV1 cells = assay: Clonogenic assay, IGROV1; type: cell-based, human; details: 2 hour exposure, 9-day chase
Experimental: IGROV1 cells seeded in 6-well plates (1000 cells/well) were exposed for 2 hours to Conjugate 5 at 1, 10, and 100 nM and followed by a 9-day chase in drug-free medium. Afterwards, the cells were washed with PBS and fixed for 5 minutes in a 3:1 methanol:acetic acid solution. The cells were then stained with 0.5% crystal violet/methanol solution for 15 minutes and washed with tap water. After a drying step, the colonies were photographed and counted using the ImageJ software.
Afterwards, the cells were washed with PBS and fixed for 5 minutes in a 3:1 methanol:acetic acid solution. The cells were then stained with 0.5% crystal violet/methanol solution for 15 minutes and washed with tap water. After a drying step, the colonies were photographed and counted using the ImageJ software.

[1] = tested on: KB-CR2000 (platin resistant) tumor; assay: In vivo activity against platinum resistant tumors; parameters: species or system mice; details: Conjugate 5 0.5 μmol/kg SIW two weeks; EC1456 2.0 μmol/kg BIW two weeks; n=4
Experimental: as §1
KB-CR2000 (platin resistant) tumor cells were inoculated subcutaneously at the right flank of each mouse. Mice were dosed through the lateral tail vein under sterile conditions in a volume of […] of phosphate-buffered saline (PBS).

4T1 TAMs = assay: Activity against 4T1 TAMs in vivo (FACS of tumors); parameters: species or system rats
Source text: Female Foxn1^nu nude rats (Harlan, Inc., Indianapolis, Ind.) on a folate-deficient diet were subcutaneously implanted with 1×10^6 4 T1 tumor cells in the mammary region. When the tumors reached ˜1088 mm^3, the animals (n=3) were intravenously dosed with nothing (Control), 254 nmol/kg of Conjugate 5, 254 nmol/kg of Conjugate 5 plus 127 μmol/kg of EC0923, or 127 μmol/kg of EC0923. Four days later, the entire tumors were harvested, enzymatically digested, and subjected to FACS analysis. The tumor cell suspensions were stained for macrophage markers (CD163, CD11b), cell viability (propidium iodide), and late and early apoptosis (Annexin V).

[2] = tested on: intraperitoneal ID8-C115 tumor; assay: Conjugate 5 plus anti-CTLA-4 combination study, survival; type: in vivo, mice; details: Conjugate 5 i.v. 0.1 μmol/kg BIW×6 doses; EC1456 i.v. 2 μmol/kg BIW×6 doses, from day 7; anti-CTLA-4 i.p. 250 μg/dose BIW×5 doses from day 11; untreated ~46 days; 5 animals
Experimental: To test the effect of Conjugate 5 alone and in combination with anti-CTLA-4 antibody, ID8-C115 tumor cells (5×10^6 cells per animal in 1% syngeneic mouse serum/folate-deficient RPMI1640 medium) were inoculated intraperitoneally 13 days post the date of arrival and start of the folate deficient diet. […] The anti-CTLA-4 antibody dosing solution was prepared by diluting the stock solution (BioXcell, Clone UC10-4F10-11) to 1.25 mg/mL in PBS, pH 7.4. Anti-CTLA-4 (250 μg/dose) was i.p. administered BIW for a total of 5 doses starting 11 days after the tumor implant. […] Mice were weighed 3 times/week and assessed for any clinical sign of swollen bellies indicative of ascites formation and for the evidence of toxicity such as respiratory distress, mobility, weight loss, diarrhea, hunched posture, and failure to eat. Once the animals developed ascites, they were monitored daily and euthanized when ascites became severe (rounded and walking on tip toes). Healthy animals from the same cohort of mice were used as controls for normal weight gain.

T1 sequence (P15328 25-234): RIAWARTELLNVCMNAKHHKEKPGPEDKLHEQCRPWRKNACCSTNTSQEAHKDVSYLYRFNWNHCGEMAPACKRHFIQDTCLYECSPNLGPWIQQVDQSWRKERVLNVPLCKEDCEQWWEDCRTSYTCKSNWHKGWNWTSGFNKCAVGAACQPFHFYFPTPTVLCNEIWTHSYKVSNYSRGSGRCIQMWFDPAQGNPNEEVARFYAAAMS

C=C1C[C@H]2C=Nc3cc(OCCCCCOc4cc(N)c(C(=O)N5CC(=C)C[C@H]5C5OCCN5C(=O)OCC(C)(C)SSCCC(=O)NCCNC(=O)CCOCCOCCOCCOCCNC(=O)CCN5C(=O)CC(SC[C@H](NC(=O)[C@H](CC(=O)O)NC(=O)[C@H](CC(=O)O)NC(=O)[C@H](CCCNC(=N)N)NC(=O)[C@H](CC(=O)O)NC(=O)CC[C@H](NC(=O)c6ccc(NCc7cnc8nc(N)[nH]c(=O)c8n7)cc6)C(=O)O)C(=O)O)C5=O)cc4OC)c(OC)cc3C(=O)N2C1 (stereo partly drawn) [Conjugate 5]
cures (KB tumor): 100% | TNBC PDX tumor size compared to untreated control (TNBC PDX tumor): decreased TNBC PDX tumor size | cure (number of mice) (ST502 TNBC PDX tumors; 0.3 μmol/kg BIW for two weeks, n=7): 7 | TNBC PDX tumor size compared to untreated control (ST502 TNBC PDX tumors; Conjugate 5 0.3 μmol/kg BIW two weeks, EC1456 2.0 μmol/kg BIW two weeks): decreased TNBC PDX tumor size | relative binding affinity toward the folate receptor, fold lower than that of folic acid (folate receptor): ~1.9 fold | DNA crosslinking, reduced form (Calf thymus DNA (CT-DNA); treated with DTT): can then crosslink with DNA | DNA crosslinking, intact conjugate (Calf thymus DNA (CT-DNA); without DTT): not able to crosslink DNA | clonogenic activity (IGROV1 cells; 1, 10, 100 nM): potent activity at all concentrations | clonogenic activity, comparison Conjugate 5 and EC1456 (IGROV1 cells; 1, 10, 100, 1000 nM): potent activity at all concentrations tested | clonogenic anti-tumor activity in the presence of excess folic acid (IGROV1 cells; 1 and 10 nM, excess folic acid): significantly reduced | cure (number of mice) [1]: 4 | anti-TAM activity in presence of 500-fold excess of EC0923 (4T1 TAMs; 254 nmol/kg Conjugate 5 plus 127 μmol/kg EC0923, single i.v. dose): not blocked | effect against FR− cell populations including CD163-CD11b+ 4T1 TAMs and 4T1 tumor cells (4T1 TAMs; 254 nmol/kg, single i.v. dose): no effect | effect on CD163+CD11b+ TAM population in 4T1 tumors (4T1 TAMs; single i.v. administration, Conjugate 5 254 nmol/kg, EC0923 127 μmol/kg, tumors harvested four days later, n=3): significantly decrease | median survival time [2]: ~77 days post tumor implant

Reference: patent US20200038514A1, “FOLATE CONJUGATE FOR USE IN TARGETING TUMOR ASSOCIATED MACROPHAGES” (ENDOCYTE, INC., priority 2016, published 2020)
